Assay results from PubChem BioAssay AID330 (DTP/NCI, 2004).
Values joined by “and” are separate entries in the source; they are usually repeats but may differ in a detail not shown here. Equal values may be shown once. Inconclusive results and toxic doses are left out.

Tested on: P388 leukemia ip, CD2F1 mice, survival T/C
Test: NCI In Vivo Anticancer Drug Screen. Data for tumor model P388 Leukemia (intraperitoneal) in CD2F1 (CDF1) mice
Details: endpoint: median survival time, higher = longer survival
In short: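 Mice carrying the transplanted tumor received test compound or vehicle. Survival was recorded in each group, and the value is the treated-group measurement divided by that of the vehicle-treated control group.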

[1] = dose: 60.0 mg/kg/injection, schedule: Q01DX005 (ip), vehicle: saline with Tween-80
[2] = dose: 50.0 mg/kg/injection, schedule: Q01DX009 (ip), vehicle: saline with Tween-80
[3] = dose: 100.0 mg/kg/injection, schedule: Q01DX009 (ip), vehicle: saline with Tween-80
[4] = dose: 200.0 mg/kg/injection, schedule: Q01DX009 (ip), vehicle: saline with Tween-80

For CC(=O)[C@]1(O)Cc2c(O)c3c(c(O)c2[C@@H](OC2CC(N)C(O)C(C)O2)C1)C(=O)c1c(O)cccc1C3=O (stereo partly drawn), the T/C (dose: 0.05 mg/kg/injection, schedule: Q01DX009 (ip), vehicle: saline) was 150 % of control, the T/C (dose: 0.08 mg/kg/injection, schedule: Q01DX009 (ip), vehicle: saline) was 159 % of control and the T/C (dose: 0.08 mg/kg/injection, schedule: Q04DX003 (ip), vehicle: water) was 100 % of control and 97 % of control. The T/C (dose: 0.1 mg/kg/injection, schedule: Q04DX003 (ip), vehicle: saline) was 123 % of control, the T/C (dose: 0.14 mg/kg/injection, schedule: Q01DX009 (ip), vehicle: saline) was 177 % of control and the T/C (dose: 0.16 mg/kg/injection, schedule: Q04DX003 (ip), vehicle: water) was 109 % of control and 87 % of control. The T/C (dose: 0.25 mg/kg/injection, schedule: Q04DX003 (ip), vehicle: water) was 119 % of control and 94 % of control, the T/C (dose: 0.3 mg/kg/injection, schedule: Q04DX003 (ip), vehicle: saline) was 154 % of control and the T/C (dose: 0.32 mg/kg/injection, schedule: Q04DX003 (ip), vehicle: saline) was 159 % of control. The T/C (dose: 0.36 mg/kg/injection, schedule: Q04DX003 (ip), vehicle: saline) was 160 % of control and 173 % of control, the T/C (dose: 0.36 mg/kg/injection, schedule: Q04DX003 (ip), vehicle: water) was 161 % of control and the T/C (dose: 0.39 mg/kg/injection, schedule: Q01DX001 (ip), vehicle: saline) was 159 % of control. For the same molecule, the T/C (dose: 0.39 mg/kg/injection, schedule: Q01DX009 (ip), vehicle: saline) was 100 % of control, the T/C (dose: 0.39 mg/kg/injection, schedule: Q04DX003 (ip), vehicle: saline) was 163 % of control and the T/C (dose: 0.4 mg/kg/injection, schedule: Q04DX003 (ip), vehicle: saline) was 154 % of control. The T/C (dose: 0.43 mg/kg/injection, schedule: Q01DX001 (ip), vehicle: saline) was 152 % of control and 160 % of control, the T/C (dose: 0.43 mg/kg/injection, schedule: Q04DX003 (ip), vehicle: saline) was 165 % of control and the T/C (dose: 0.5 mg/kg/injection, schedule: Q04DX003 (ip), vehicle: water) was 116 % of control and 124 % of control. The T/C (dose: 0.54 mg/kg/injection, schedule: Q04DX003 (ip), vehicle: saline) was 161 % of control, the T/C (dose: 0.6 mg/kg/injection, schedule: Q04DX003 (ip), vehicle: saline) was 154 % of control and 168 % of control and the T/C (dose: 0.6 mg/kg/injection, schedule: Q04DX003 (ip), vehicle: water) was 170 % of control. The T/C (dose: 0.6 mg/kg/injection, schedule: Q04DX003 (oral), vehicle: saline) was 112 % of control, the T/C (dose: 0.64 mg/kg/injection, schedule: Q04DX003 (ip), vehicle: water) was 109 % of control and 115 % of control and 274 % of control and the T/C (dose: 0.65 mg/kg/injection, schedule: Q01DX001 (ip), vehicle: saline) was 172 % of control. For the same molecule, the T/C (dose: 0.65 mg/kg/injection, schedule: Q04DX003 (ip), vehicle: saline) was 172 % of control, the T/C (dose: 0.72 mg/kg/injection, schedule: Q01DX001 (ip), vehicle: saline) was 161 % of control and 180 % of control and the T/C (dose: 0.72 mg/kg/injection, schedule: Q04DX003 (ip), vehicle: saline) was 167 % of control. For the same molecule, the T/C (dose: 0.9 mg/kg/injection, schedule: Q04DX003 (ip), vehicle: saline) was 160 % of control and 186 % of control, the T/C (dose: 1.0 mg/kg/injection, schedule: Q04DX003 (ip), vehicle: saline) was 92 % of control and 94 % of control and the T/C (dose: 1.0 mg/kg/injection, schedule: Q04DX003 (ip), vehicle: water) was 102 % of control. For the same molecule, the T/C (dose: 1.0 mg/kg/injection, schedule: Q04DX003 (oral), vehicle: saline) was 110 % of control, the T/C (dose: 1.08 mg/kg/injection, schedule: Q01DX001 (ip), vehicle: saline) was 95 % of control and the T/C (dose: 1.08 mg/kg/injection, schedule: Q04DX003 (ip), vehicle: saline) was 100 % of control. For the same molecule, the T/C (dose: 1.2 mg/kg/injection, schedule: Q01DX001 (ip), vehicle: saline) was 105 % of control, the T/C (dose: 1.2 mg/kg/injection, schedule: Q01DX001 (oral), vehicle: saline) was 110 % of control and the T/C (dose: 1.2 mg/kg/injection, schedule: Q04DX003 (ip), vehicle: saline) was 110 % of control. The T/C (dose: 1.5 mg/kg/injection, schedule: Q04DX003 (ip), vehicle: saline) was 108 % of control, the T/C (dose: 1.67 mg/kg/injection, schedule: Q04DX003 (oral), vehicle: saline) was 115 % of control and the T/C (dose: 2.0 mg/kg/injection, schedule: Q01DX001 (oral), vehicle: saline) was 102 % of control. For the same molecule, the T/C (dose: 2.0 mg/kg/injection, schedule: Q04DX003 (ip), vehicle: water) was 116 % of control, the T/C (dose: 2.78 mg/kg/injection, schedule: Q04DX003 (oral), vehicle: saline) was 106 % of control and 110 % of control and the T/C (dose: 3.2 mg/kg/injection, schedule: Q04DX003 (ip), vehicle: saline) was 105 % of control. For the same molecule, the T/C (dose: 3.33 mg/kg/injection, schedule: Q01DX001 (oral), vehicle: saline) was 111 % of control and 116 % of control, the T/C (dose: 4.63 mg/kg/injection, schedule: Q04DX003 (oral), vehicle: saline) was 113 % of control and the T/C (dose: 5.56 mg/kg/injection, schedule: Q01DX001 (oral), vehicle: saline) was 114 % of control. For the same molecule, the T/C (dose: 6.4 mg/kg/injection, schedule: Q04DX003 (ip), vehicle: saline) was 99 % of control, the T/C (dose: 7.72 mg/kg/injection, schedule: Q04DX003 (oral), vehicle: saline) was 166 % of control and the T/C (dose: 9.26 mg/kg/injection, schedule: Q01DX001 (oral), vehicle: saline) was 152 % of control. The T/C (dose: 12.9 mg/kg/injection, schedule: Q04DX003 (oral), vehicle: saline) was 164 % of control, the T/C (dose: 6.25 micrograms/kg/injection, schedule: Q04DX003 (ip), vehicle: saline) was 120 % of control and the T/C (dose: 15.0 micrograms/kg/injection, schedule: Q04DX003 (ip), vehicle: saline) was 111 % of control. The T/C (dose: 25.0 micrograms/kg/injection, schedule: Q04DX003 (ip), vehicle: saline) was 116 % of control, the T/C (dose: 31.0 micrograms/kg/injection, schedule: Q04DX003 (ip), vehicle: saline) was 111 % of control and the T/C (dose: 50.0 micrograms/kg/injection, schedule: Q04DX003 (ip), vehicle: saline) was 111 % of control. The T/C (dose: 62.0 micrograms/kg/injection, schedule: Q04DX003 (ip), vehicle: saline) was 107 % of control, the T/C (dose: 125.0 micrograms/kg/injection, schedule: Q04DX003 (ip), vehicle: saline) was 107 % of control and the T/C (dose: 200.0 micrograms/kg/injection, schedule: Q04DX003 (ip), vehicle: saline) was 119 % of control. The T/C (dose: 500.0 micrograms/kg/injection, schedule: Q04DX003 (ip), vehicle: saline) was 156 % of control, the T/C (dose: 800.0 micrograms/kg/injection, schedule: Q04DX003 (ip), vehicle: saline) was 122 % of control and the T/C (dose: 1000.0 micrograms/kg/injection, schedule: Q04DX003 (ip), vehicle: saline) was 166 % of control. For the same molecule, the T/C (dose: 2000.0 micrograms/kg/injection, schedule: Q04DX003 (ip), vehicle: saline) was 88 % of control, the T/C (dose: 3200.0 micrograms/kg/injection, schedule: Q04DX003 (ip), vehicle: saline) was 103 % of control and the T/C (dose: 6400.0 micrograms/kg/injection, schedule: Q04DX003 (ip), vehicle: saline) was 116 % of control.
With Fc1ccnc(F)n1 the T/C (dose: 25.0 mg/kg/injection, schedule: Q04DX003 (ip), vehicle: water) was 100 % of control and the T/C (dose: 50.0 mg/kg/injection, schedule: Q04DX003 (ip), vehicle: water) was 104 % of control.
With CC(=O)OCCOCNC(=S)N/N=C/c1ccccn1 the T/C [1] was 115 % of control.
In the case of c1ccc(CSc2nnc(NC3CCCCC3)s2)cc1, the T/C [2] is reported as 96 % of control, the T/C [3] is reported as 96 % of control and the T/C [4] is reported as 100 % of control.
For CC1=CC(C)(C(Cl)(Cl)Cl)C(C)=CC1=O (stereo not drawn), the T/C (dose: 50.0 mg/kg/injection, schedule: Q01DX005 (ip), vehicle: Klucel (hydroxypropylcellulose) (HPC)) was 98 % of control, the T/C (dose: 100.0 mg/kg/injection, schedule: Q01DX005 (ip), vehicle: Klucel (hydroxypropylcellulose) (HPC)) was 99 % of control and the T/C (dose: 200.0 mg/kg/injection, schedule: Q01DX005 (ip), vehicle: Klucel (hydroxypropylcellulose) (HPC)) was 101 % of control.
With Oc1ccc(N=Cc2cccs2)cc1 the T/C (dose: 25.0 mg/kg/injection, schedule: Q01DX009 (ip), vehicle: Klucel (hydroxypropylcellulose) (HPC)) was 110 % of control, the T/C (dose: 50.0 mg/kg/injection, schedule: Q01DX009 (ip), vehicle: Klucel (hydroxypropylcellulose) (HPC)) was 100 % of control and the T/C (dose: 100.0 mg/kg/injection, schedule: Q01DX009 (ip), vehicle: Klucel (hydroxypropylcellulose) (HPC)) was 106 % of control. For the same molecule, the T/C (dose: 200.0 mg/kg/injection, schedule: Q01DX009 (ip), vehicle: Klucel (hydroxypropylcellulose) (HPC)) was 105 % of control.
With O=C(Nc1ccc(Cl)cc1)Nc1nnc(-c2cccc(Cl)c2)o1 the T/C (dose: 7.5 mg/kg/injection, schedule: Q01DX005 (ip), vehicle: saline with Tween-80) was 95 % of control, the T/C (dose: 15.0 mg/kg/injection, schedule: Q01DX005 (ip), vehicle: saline with Tween-80) was 90 % of control and 93 % of control and the T/C [1] was 89 % of control. The T/C (dose: 240.0 mg/kg/injection, schedule: Q01DX005 (ip), vehicle: saline with Tween-80) was 91 % of control.
With CCC(C)CCC(=O)O (stereo not drawn) the T/C [2] was 98 % of control, the T/C [3] was 97 % of control and the T/C [4] was 99 % of control.
